# Target: PIK3CA (human) (UniProt P42336)
# Test: Assessment of PIK3CA Kinase Activity
# Sequence of PIK3CA (human) (P42336 whole entry, looked up): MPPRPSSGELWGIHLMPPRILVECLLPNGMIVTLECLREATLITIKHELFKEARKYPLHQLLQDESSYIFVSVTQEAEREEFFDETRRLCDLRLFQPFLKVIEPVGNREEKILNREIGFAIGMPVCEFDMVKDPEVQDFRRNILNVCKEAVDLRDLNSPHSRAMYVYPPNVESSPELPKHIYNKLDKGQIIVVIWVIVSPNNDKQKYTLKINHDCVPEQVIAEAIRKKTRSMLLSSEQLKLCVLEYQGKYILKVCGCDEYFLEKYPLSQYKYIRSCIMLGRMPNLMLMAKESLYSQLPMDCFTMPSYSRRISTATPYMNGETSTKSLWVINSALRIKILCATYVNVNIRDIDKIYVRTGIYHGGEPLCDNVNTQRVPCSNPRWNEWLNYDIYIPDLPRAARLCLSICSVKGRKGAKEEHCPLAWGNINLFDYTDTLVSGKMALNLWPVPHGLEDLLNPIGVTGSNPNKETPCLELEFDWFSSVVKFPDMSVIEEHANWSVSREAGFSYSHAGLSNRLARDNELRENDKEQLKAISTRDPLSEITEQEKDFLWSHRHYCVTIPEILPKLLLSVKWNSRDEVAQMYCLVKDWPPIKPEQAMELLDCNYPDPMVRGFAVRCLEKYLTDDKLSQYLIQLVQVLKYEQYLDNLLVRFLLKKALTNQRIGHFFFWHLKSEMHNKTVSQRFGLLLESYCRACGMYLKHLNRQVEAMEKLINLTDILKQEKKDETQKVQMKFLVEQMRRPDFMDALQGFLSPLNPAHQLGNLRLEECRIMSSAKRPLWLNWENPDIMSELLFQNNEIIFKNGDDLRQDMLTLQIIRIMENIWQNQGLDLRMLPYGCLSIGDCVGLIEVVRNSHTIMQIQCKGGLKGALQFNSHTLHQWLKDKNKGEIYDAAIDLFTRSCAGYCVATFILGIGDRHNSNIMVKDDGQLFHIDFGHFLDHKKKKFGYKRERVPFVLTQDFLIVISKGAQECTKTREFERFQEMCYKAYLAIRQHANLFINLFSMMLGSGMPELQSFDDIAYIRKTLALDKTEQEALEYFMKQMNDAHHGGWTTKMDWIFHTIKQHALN
row,SMILES,IC50 [µM]
1,CNC(=O)CN1CCC(c2ccc3c(c2)OCCc2sc(-c4ncnn4C(C)C)nc2-3)CC1,< 1
2,CC(C)n1ncnc1-c1nc2c(s1)CCOc1ccc(-c3ccc(N4CCCC4)nc3)cc1-2,< 1
3,CC(C)n1ncnc1-c1nc2c(s1)CCOc1cc(C3CN(S(=O)(=O)C(C)C)C3)ccc1-2,< 1
4,CC(C)n1nc(N)nc1-c1cc2c(s1)-c1ccc(-c3cnn(CC(C)(C)O)c3)cc1OCC2,< 1
5,Cc1nc(-c2nc3c(s2)CCOc2cc(-c4cnn(C5CNC5)c4)ccc2-3)n(C(C)C)n1,< 1
6,CN(C)C1CCN(C(=O)c2nc3c(s2)CCOc2cc(-c4cn[nH]c4)ccc2-3)CC1,< 1
7,OC1CCN(c2ccc3c(n2)-c2sc(-c4ncnn4-c4ccc(F)cc4F)cc2CCO3)CC1,< 1
8,C[C@@H]1CCN(C(=O)c2nc3c(s2)CCOc2cc(-c4cn[nH]c4)ccc2-3)C1,< 1
9,CC(C)n1ncnc1-c1nc2c(s1)CCOc1ccc(-c3cccn(C(C)C)c3=O)cc1-2,< 1
10,Cc1nc(-c2nc3c(s2)CCOc2cc(CNS(C)(=O)=O)ccc2-3)n(C(C)C)n1,< 1
11,CN1CCN(c2ccc3c(n2)-c2sc(-c4ncnn4-c4ccc(F)cc4F)cc2CCO3)CC1,< 1
12,CC(CO)Nc1ccc2c(n1)-c1sc(-c3ncnn3-c3ccc(F)cc3F)cc1CCO2 (stereo not given),< 1
13,Fc1ccc(-n2ncnc2-c2cc3c(s2)-c2nc(N4CCCNCC4)ccc2OCC3)c(F)c1,< 1
14,CC(C)n1nc(N)nc1-c1nc2c(s1)CCOc1ccc(F)cc1-2,< 1
15,CN(CC(=O)N1CCOCC1)C(=O)c1nc2c(s1)CCOc1cc(-c3cn[nH]c3)ccc1-2,< 1
16,O=C(c1nc2c(s1)CCOc1cc(-c3cn[nH]c3)ccc1-2)N1CCN2CCCC[C@@H]2C1,< 1
17,CC(C)n1ncnc1-c1nc2c(s1)CCOc1ccc(C3CN(CCO)C3)cc1-2,< 1
18,CN(C)CCNc1ccc(-c2ccc3c(n2)-c2sc(-c4ncnn4-c4ccc(F)cc4F)cc2CCO3)cn1,< 1
19,CCN(CC)[C@@H]1CCN(C(=O)c2nc3c(s2)CCOc2cc(-c4cn[nH]c4)ccc2-3)C1,< 1

row,SMILES,IC50 [µM]
1,O=C(c1nc2c(s1)CCOc1cc(-c3cn[nH]c3)ccc1-2)N1CCC[C@@H](O)C1,< 1
2,O=C(c1nc2c(s1)CCOc1cc(-c3cn[nH]c3)ccc1-2)N1CCN(c2cnccn2)CC1,< 1
3,CN(C(=O)c1cc2c(s1)-c1ccc(C(=O)NCCS(C)(=O)=O)cc1OCC2)c1cc(C(=O)N2CCNCC2)ccc1Cl,< 1
4,CC(C)n1ncnc1-c1nc2c(s1)CCOc1ccc(-c3cccn(CCN4CCOCC4)c3=O)cc1-2,< 1
5,CC(O)C(=O)N1CC(n2cc(-c3ccc4c(c3)OCCc3sc(-c5ncnn5C(C)C)nc3-4)cn2)C1 (stereo not given),< 1
6,Cc1nc(-c2nc3c(s2)CCOc2cc(C4CN(CCF)C4)ccc2-3)n(C(C)C)n1,< 1
7,CC(C)N1CC[C@H](CN(C)C(=O)c2nc3c(s2)CCOc2cc(-c4cn[nH]c4)ccc2-3)C1,< 1
8,O=C(c1nc2c(s1)CCOc1cc(-c3cn[nH]c3)ccc1-2)N1CCN(C(=O)C(F)(F)F)CC1,< 1
9,CC(C)n1ncnc1-c1nc2c(s1)CCOc1cc(O[C@H](C)C(N)=O)ccc1-2,< 1
10,Fc1ccc(-n2ncnc2-c2nc3c(s2)CCOc2cc(-c4cn[nH]c4)ccc2-3)c(F)c1,< 1
11,CC(O)C(=O)N1CC(n2ccnc2-c2nc3c(s2)CCOc2cc(-c4cnn(CC(C)(C)O)c4)ccc2-3)C1 (stereo not given),< 1
12,CCN1[C@H](C)CN(c2ccc3c(n2)-c2sc(-c4ncnn4-c4ccc(F)cc4F)cc2CCO3)C[C@@H]1C,< 1
13,CC(C)(O)Cn1cc(-c2ccc3c(c2)OCCc2sc(N4C(=O)NCC4(C)C)nc2-3)cn1,< 1
14,CS(=O)(=O)n1cc(-c2ccc3c(c2)OCCc2sc(-c4ncnn4CC(F)(F)F)nc2-3)cn1,< 1
15,C[C@H](O)CNC(=O)c1ccc(Cl)c(N(C)C(=O)c2cc3c(s2)-c2ccc(C(=O)NCCS(C)(=O)=O)cc2OCC3)c1,< 1
16,COc1cncc(-c2ccc3c(c2)-c2nc(-c4ncnn4C(C)C)sc2CCO3)c1,< 1
17,OCCNc1ccc(-c2ccc3c(n2)-c2sc(-c4ncnn4-c4ccc(F)cc4F)cc2CCO3)cn1,< 1
18,CC(C)Nc1ccc2c(n1)-c1sc(-c3ncnn3-c3ccc(F)cc3F)cc1CCO2,< 1
19,CC(C)n1ncnc1-c1nc2c(s1)CCOc1ccc(-c3cc[nH]c(=O)c3)cc1-2,< 1

row,SMILES,IC50 [µM]
1,CO[C@@H]1CCCN(C(=O)c2nc3c(s2)CCOc2cc(-c4cn[nH]c4)ccc2-3)C1,< 1
2,OCC(O)CNc1ccc2c(n1)-c1sc(-c3ncnn3-c3ccc(F)cc3F)cc1CCO2 (stereo not given),< 1
3,CC(C)n1ncnc1-c1nc2c(s1)CCOc1ccc(-c3cccnc3F)cc1-2,< 1
4,CC(C)N(CCO)C(=O)c1nc2c(s1)CCOc1ccc(-c3cnn(CC(C)(C)O)c3)cc1-2,< 1
5,C[C@@H]1CN(c2ccc3c(n2)-c2sc(-c4ncnn4-c4ccc(F)cc4F)cc2CCO3)C[C@H](C)N1CC(F)F,< 1
6,CN(C)[C@@H]1CCN(C(=O)c2nc3c(s2)CCOc2cc(-c4cn[nH]c4)ccc2-3)C1,< 1
7,COc1ccc(-c2ccc3c(c2)-c2nc(-c4ncnn4C(C)C)sc2CCO3)cn1,< 1
8,CC(C)n1ncnc1-c1nc2c(s1)CCOc1cc(C3CN(C(=O)C(C)(C)O)C3)ccc1-2,< 1
9,CC(C)(O)Cn1cc(-c2ccc3c(c2)OCCc2sc(-c4ncnn4CCO)nc2-3)cn1,< 1
10,Cc1nc(-c2nc3c(s2)CCOc2cc(C4CN(CCO)C4)ccc2-3)n(C(C)C)n1,< 1
11,CC(C)n1ncnc1-c1nc2c(s1)CCOc1cc(C3CN(CC(=O)NCC(C)(C)O)C3)ccc1-2,< 1
12,CC(C)n1ncnc1-c1nc2c(s1)CCOc1ccc(-c3cncc(S(C)(=O)=O)c3)cc1-2,< 1
13,Cc1nc(-c2nc3c(s2)CCOc2cc(C4CN(CCCO)C4)ccc2-3)n(C(C)C)n1,< 1
14,OCCCCc1ccc2c(n1)-c1sc(-c3ncnn3-c3ccc(F)cc3F)cc1CCO2,< 1
15,CN(C[C@@H](O)CO)C(=O)c1nc2c(s1)CCOc1cc(-c3cn[nH]c3)ccc1-2,< 1
16,CC(C)n1ncnc1-c1cc2c(s1)-c1ccc(-c3cnn(CCO)c3)cc1OCC2,< 1
17,O=C(c1nc2c(s1)CCOc1cc(-c3cn[nH]c3)ccc1-2)N1CCCN(c2ccncc2)CC1,< 1
18,CC(=O)N1CC(Nc2ccc3c(n2)-c2sc(-c4ncnn4-c4ccc(F)cc4F)cc2CCO3)C1,< 1

# Next, values leading:
row,IC50 [µM],SMILES
1,< 1,C[C@H](O)C(=O)N1CCN(c2ccc3c(n2)-c2sc(-c4ncnn4-c4ccc(F)cc4F)cc2CCO3)CC1
2,< 1,FC(F)(F)Cn1ncnc1-c1nc2c(s1)CCOc1cc(-c3cnn(CCNC4COC4)c3)ccc1-2
3,< 1,CNC(=O)c1ccc2c(c1)OCCc1cc(C(=O)N(C)c3cc(C(=O)NCCO)ccc3Cl)sc1-2
4,< 1,CN(C(=O)c1cc2c(s1)-c1ccc(C(=O)NCCS(C)(=O)=O)cc1OCC2)c1cc(C(=O)NCCO)ccc1Cl
5,< 1,O=C(c1nc2c(s1)CCOc1cc(-c3cn[nH]c3)ccc1-2)N1CCC(c2ccc(F)cc2F)CC1
6,< 1,CC(C)n1ncnc1-c1nc2c(s1)CCOc1cc(-c3cccnc3F)ccc1-2
7,< 1,COCCNC(=O)c1ccc2c(c1)OCCc1sc(-c3ncnn3C(C)C)nc1-2
8,< 1,CC(C)n1ncnc1-c1nc2c(s1)CCOc1ccc(-c3cccnc3C(F)(F)F)cc1-2
9,< 1,CN(CCO)C(=O)c1ccc(Cl)c(N(C)C(=O)c2cc3c(s2)-c2ccc(C(=O)NCCS(C)(=O)=O)cc2OCC3)c1
10,< 1,CC(C)n1ncnc1-c1nc2c(s1)CCOc1cc(C3CN(C(=O)C4(N)CC4)C3)ccc1-2
11,< 1,Fc1ccc(-n2ncnc2-c2cc3c(s2)-c2nc(-c4ccc(N5CCCC5)nc4)ccc2OCC3)c(F)c1
12,< 1,COCCN1CC(c2ccc3c(c2)OCCc2sc(-c4nc(C)nn4C(C)C)nc2-3)C1
13,< 1,O=C(c1nc2c(s1)CCOc1cc(-c3cn[nH]c3)ccc1-2)N1CCN(C(=O)[C@H]2CCCO2)CC1
14,< 1,CC(=O)N1CCC(N(CCO)C(=O)c2nc3c(s2)CCOc2cc(-c4cnn(CC(C)(C)O)c4)ccc2-3)CC1
15,< 1,CC(=O)N1CC(N(C(C)=O)c2ccc3c(n2)-c2sc(-c4ncnn4-c4ccc(F)cc4F)cc2CCO3)C1
16,< 1,CN(C)CCN(C(=O)c1nc2c(s1)CCOc1cc(-c3cnn(CC(C)(C)O)c3)ccc1-2)C1CCCCC1
17,< 1,COc1ccccc1C1CCN(C(=O)c2nc3c(s2)CCOc2cc(-c4cn[nH]c4)ccc2-3)CC1

row,IC50 [µM],SMILES
1,< 1,CN(C)CCCc1ccc2c(n1)-c1sc(-c3ncnn3-c3ccc(F)cc3F)cc1CCO2
2,< 1,COc1ccncc1-c1ccc2c(c1)-c1nc(-c3ncnn3C(C)C)sc1CCO2
3,< 1,O=C(c1nc2c(s1)CCOc1cc(-c3cn[nH]c3)ccc1-2)N1CCCC[C@@H]1CO
4,< 1,CN1CC(C)(C)N(c2nc3c(s2)CCOc2cc(-c4cnn(CC(C)(C)O)c4)ccc2-3)C1=O
5,< 1,CC(C)n1ncnc1-c1nc2c(s1)CCOc1ccc(-c3ccc(=O)[nH]c3)cc1-2
6,< 1,CN1CCN(c2ccc(-c3ccc4c(n3)-c3sc(-c5ncnn5-c5ccc(F)cc5F)cc3CCO4)cn2)CC1
7,< 1,Cc1ccc(-c2ccc3c(n2)-c2sc(-c4ncnn4-c4ccc(F)cc4F)cc2CCO3)cn1
8,< 1,Cc1nc(-c2nc3c(s2)CCOc2cc(-c4ccccc4S(N)(=O)=O)ccc2-3)n(C(C)C)n1
9,< 1,Cc1nc(-c2nc3c(s2)CCOc2cc(-c4cn(CCO)cn4)ccc2-3)n(C(C)C)n1
10,< 1,CC(C)n1ncnc1-c1nc2c(s1)CCOc1cc(C3CCN(CCS(=O)(=O)N(C)C)CC3)ccc1-2
11,< 1,Nc1ccc2c(n1)-c1sc(-c3ncnn3-c3ccc(F)cc3F)cc1CCO2
12,< 1,O=C(c1nc2c(s1)CCOc1cc(-c3cn[nH]c3)ccc1-2)N1CC[C@@H](N2CCOCC2)C1
13,< 1,CC(=O)NCCNc1ccc2c(n1)-c1sc(-c3ncnn3-c3ccc(F)cc3F)cc1CCO2
14,< 1,CN(C)S(=O)(=O)N1CCN(C(=O)c2nc3c(s2)CCOc2cc(-c4cn[nH]c4)ccc2-3)CC1
15,< 1,CN(C)C(=O)CNc1ccc2c(n1)-c1sc(-c3ncnn3-c3ccc(F)cc3F)cc1CCO2
16,< 1,CC(C)(O)CCc1ccc2c(n1)-c1sc(-c3ncnn3-c3ccc(F)cc3F)cc1CCO2
17,< 1,CC(C)n1ncnc1-c1nc2c(s1)CCOc1cc(C3CN(CC(N)=O)C3)ccc1-2
